Tested on: 276233-004-R-J1-PDC spheroids with HUVEC/MSC, viability
Test: Anticancer human tumor 276233-004-R-J1-PDC patient-derived colon adenocarcinoma cell line growth inhibition [TAK]
Settings: for viability, T/C: stronger effect = lower value
Summary of the method: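 Drug combinations, each paired with TAK-243 or ipatasertib, were tested on multi-cell spheroids of 60% malignant cells, 25% HUVEC and 15% hMSC. Top concentrations were at or near the clinical Cmax (10 microM if undetermined), decreasing by half-log; viability is given as % test/control.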

[1] = curve of first compound, second compound 0.3 µM
[2] = curve of first compound, second compound 0.949 µM
[3] = curve of first compound, second compound 3 µM
[4] = curve of first compound, second compound 9.49 µM
[5] = curve of first compound, second compound 30 µM
[6] = second compound 0.3 µM, first compound 0.000316 µM
[7] = second compound 0.3 µM, first compound 0.001 µM
[8] = second compound 0.3 µM, first compound 0.00316 µM
[9] = second compound 0.3 µM, first compound 0.01 µM
[10] = second compound 0.3 µM, first compound 0.0316 µM
[11] = second compound 0.3 µM, first compound 0.1 µM
[12] = second compound 0.949 µM, first compound 0.000316 µM
[13] = second compound 0.949 µM, first compound 0.001 µM
[14] = second compound 0.949 µM, first compound 0.00316 µM
[15] = second compound 0.949 µM, first compound 0.01 µM
[16] = second compound 0.949 µM, first compound 0.0316 µM
[17] = second compound 0.949 µM, first compound 0.1 µM
[18] = second compound 3 µM, first compound 0.000316 µM
[19] = second compound 3 µM, first compound 0.001 µM
[20] = second compound 3 µM, first compound 0.00316 µM
[21] = second compound 3 µM, first compound 0.01 µM
[22] = second compound 3 µM, first compound 0.0316 µM
[23] = second compound 3 µM, first compound 0.1 µM
[24] = second compound 9.49 µM, first compound 0.000316 µM
[25] = second compound 9.49 µM, first compound 0.001 µM
[26] = second compound 9.49 µM, first compound 0.00316 µM
[27] = second compound 9.49 µM, first compound 0.01 µM
[28] = second compound 9.49 µM, first compound 0.0316 µM
[29] = second compound 9.49 µM, first compound 0.1 µM
[30] = second compound 30 µM, first compound 0.000316 µM
[31] = second compound 30 µM, first compound 0.001 µM
[32] = second compound 30 µM, first compound 0.00316 µM
[33] = second compound 30 µM, first compound 0.01 µM
[34] = second compound 30 µM, first compound 0.0316 µM
[35] = second compound 30 µM, first compound 0.1 µM
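Also: spheroids exposed to drugs for seven days before the viability read.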

SMILES: CC(=O)Nc1cccc(-n2c(=O)n(C3CC3)c(=O)c3c(Nc4ccc(I)cc4F)n(C)c(=O)c(C)c32)c1 + CC(C)NCC(C(=O)N1CCN(c2ncnc3c2C(C)CC3O)CC1)c1ccc(Cl)cc1
- IC50 [1]: 8.22 nM
- IC50 [2]: 5.23 nM
- IC50 [3]: 3.25 nM
- IC50 [4]: 1.82 nM
- IC50 [5]: 0.326 nM
- viability, T/C (second compound 0.3 µM, first compound 94.9 pM): 101%
- viability, T/C (second compound 0.3 µM, first compound 0.0003 µM): 86.7%
- viability, T/C (second compound 0.3 µM, first compound 0.000949 µM): 67.2%
- viability, T/C (second compound 0.3 µM, first compound 0.003 µM): 73.8%
- viability, T/C (second compound 0.3 µM, first compound 0.00949 µM): 48.8%
- viability, T/C (second compound 0.3 µM, first compound 0.03 µM): 28.6%
- viability, T/C (second compound 0.949 µM, first compound 94.9 pM): 80.8%
- viability, T/C (second compound 0.949 µM, first compound 0.0003 µM): 84.8%
- viability, T/C (second compound 0.949 µM, first compound 0.000949 µM): 77.1%
- viability, T/C (second compound 0.949 µM, first compound 0.003 µM): 55.4%
- viability, T/C (second compound 0.949 µM, first compound 0.00949 µM): 43.2%
- viability, T/C (second compound 0.949 µM, first compound 0.03 µM): 26%
- viability, T/C (second compound 3 µM, first compound 94.9 pM): 77.9%
- viability, T/C (second compound 3 µM, first compound 0.0003 µM): 61.6%
- viability, T/C (second compound 3 µM, first compound 0.000949 µM): 64%
- viability, T/C (second compound 3 µM, first compound 0.003 µM): 48.9%
- viability, T/C (second compound 3 µM, first compound 0.00949 µM): 43.5%
- viability, T/C (second compound 3 µM, first compound 0.03 µM): 27.1%
- viability, T/C (second compound 9.49 µM, first compound 94.9 pM): 72.6%
- viability, T/C (second compound 9.49 µM, first compound 0.0003 µM): 69.3%
- viability, T/C (second compound 9.49 µM, first compound 0.000949 µM): 53.5%
- viability, T/C (second compound 9.49 µM, first compound 0.003 µM): 45.5%
- viability, T/C (second compound 9.49 µM, first compound 0.00949 µM): 33%
- viability, T/C (second compound 9.49 µM, first compound 0.03 µM): 18.4%
- viability, T/C (second compound 30 µM, first compound 94.9 pM): 45.8%
- viability, T/C (second compound 30 µM, first compound 0.0003 µM): 55.1%
- viability, T/C (second compound 30 µM, first compound 0.000949 µM): 45.3%
- viability, T/C (second compound 30 µM, first compound 0.003 µM): 27.8%
- viability, T/C (second compound 30 µM, first compound 0.00949 µM): 29.6%
- viability, T/C (second compound 30 µM, first compound 0.03 µM): 33.6%

SMILES: COC1CC2CCC(C)C(O)(O2)C(=O)C(=O)N2CCCCC2C(=O)OC(C(C)CC2CCC(OCCO)C(OC)C2)CC(=O)C(C)C=C(C)C(O)C(OC)C(=O)C(C)CC(C)C=CC=CC=C1C (stereo not drawn) + CC(C)NCC(C(=O)N1CCN(c2ncnc3c2C(C)CC3O)CC1)c1ccc(Cl)cc1
- IC50 [1]: > 100 nM
- IC50 [2]: > 100 nM
- IC50 [3]: > 100 nM
- IC50 [4]: > 100 nM
- IC50 [5]: > 100 nM
- viability, T/C [6]: 126%
- viability, T/C [7]: 81.9%
- viability, T/C [8]: 75.9%
- viability, T/C [9]: 79.3%
- viability, T/C [10]: 67.5%
- viability, T/C [11]: 71.3%
- viability, T/C [12]: 74.3%
- viability, T/C [13]: 93.3%
- viability, T/C [14]: 81.9%
- viability, T/C [15]: 70.5%
- viability, T/C [16]: 68.3%
- viability, T/C [17]: 58.4%
- viability, T/C [18]: 72.3%
- viability, T/C [19]: 65.5%
- viability, T/C [20]: 57.4%
- viability, T/C [21]: 68.2%
- viability, T/C [22]: 54.9%
- viability, T/C [23]: 57.9%
- viability, T/C [24]: 55.9%
- viability, T/C [25]: 57.3%
- viability, T/C [26]: 49.1%
- viability, T/C [27]: 53.6%
- viability, T/C [28]: 51.4%
- viability, T/C [29]: 54.1%
- viability, T/C [30]: 53.8%
- viability, T/C [31]: 61%
- viability, T/C [32]: 48.2%
- viability, T/C [33]: 54.2%
- viability, T/C [34]: 59%
- viability, T/C [35]: 51.7%

SMILES: CC(C)NCC(C(=O)N1CCN(c2ncnc3c2C(C)CC3O)CC1)c1ccc(Cl)cc1 (stereo not drawn)
- viability, T/C (compound 0.949 µM): 84.7% [middle of 10 runs]
- viability, T/C (compound 3 µM): 82.2% [middle of 10 runs]
- IC50 (compound alone, run of 03/19/2020): > 30000 nM

SMILES: CC(C)CC(NC(=O)CNC(=O)c1cc(Cl)ccc1Cl)B1OC(=O)CC(CC(=O)O)(C(=O)O)O1 (stereo not drawn) + CC(C)NCC(C(=O)N1CCN(c2ncnc3c2C(C)CC3O)CC1)c1ccc(Cl)cc1
- IC50 [1]: 53.9 nM
- IC50 [2]: 52.3 nM
- IC50 [3]: 42.1 nM
- IC50 [4]: 31.7 nM
- IC50 [5]: 17.5 nM
- viability, T/C [6]: 112%
- viability, T/C [7]: 103%
- viability, T/C [8]: 102%
- viability, T/C [9]: 106%
- viability, T/C [10]: 81.2%
- viability, T/C [11]: 14.1%
- viability, T/C [12]: 112%
- viability, T/C [13]: 95.7%
- viability, T/C [14]: 101%
- viability, T/C [15]: 91.3%
- viability, T/C [16]: 82.1%
- viability, T/C [17]: 12%
- viability, T/C [18]: 90.4%
- viability, T/C [19]: 89.6%
- viability, T/C [20]: 84.3%
- viability, T/C [21]: 79.4%
- viability, T/C [22]: 64.4%
- viability, T/C [23]: 10.9%
- viability, T/C [24]: 74.6%
- viability, T/C [25]: 84.8%
- viability, T/C [26]: 65.1%
- viability, T/C [27]: 71.7%
- viability, T/C [28]: 49.2%
- viability, T/C [29]: 13.5%
- viability, T/C [30]: 68.2%
- viability, T/C [31]: 84.8%
- viability, T/C [32]: 60.5%
- viability, T/C [33]: 63.7%
- viability, T/C [34]: 38.3%
- viability, T/C [35]: 17.2%

SMILES: CC(C)(C)c1nc(-c2cccc(NS(=O)(=O)c3c(F)cccc3F)c2F)c(-c2ccnc(N)n2)s1 + CC(C)NCC(C(=O)N1CCN(c2ncnc3c2C(C)CC3O)CC1)c1ccc(Cl)cc1
- IC50 [1]: > 10000 nM
- IC50 [2]: > 10000 nM
- IC50 [3]: > 10000 nM
- IC50 [4]: > 10000 nM
- IC50 [5]: > 10000 nM
- viability, T/C [10]: 109%
- viability, T/C [11]: 92.8%
- viability, T/C (second compound 0.3 µM, first compound 0.316 µM): 110%
- viability, T/C (second compound 0.3 µM, first compound 1 µM): 90.7%
- viability, T/C (second compound 0.3 µM, first compound 3.16 µM): 65.1%
- viability, T/C (second compound 0.3 µM, first compound 10 µM): 82.6%
- viability, T/C [16]: 101%
- viability, T/C [17]: 96.4%
- viability, T/C (second compound 0.949 µM, first compound 0.316 µM): 86.8%
- viability, T/C (second compound 0.949 µM, first compound 1 µM): 84.4%
- viability, T/C (second compound 0.949 µM, first compound 3.16 µM): 73.8%
- viability, T/C (second compound 0.949 µM, first compound 10 µM): 71.8%
- viability, T/C [22]: 80.6%
- viability, T/C [23]: 78.3%
- viability, T/C (second compound 3 µM, first compound 0.316 µM): 91.1%
- viability, T/C (second compound 3 µM, first compound 1 µM): 61.1%
- viability, T/C (second compound 3 µM, first compound 3.16 µM): 63.5%
- viability, T/C (second compound 3 µM, first compound 10 µM): 65.5%
- viability, T/C [28]: 73.2%
- viability, T/C [29]: 78.8%
- viability, T/C (second compound 9.49 µM, first compound 0.316 µM): 68.2%
- viability, T/C (second compound 9.49 µM, first compound 1 µM): 64.7%
- viability, T/C (second compound 9.49 µM, first compound 3.16 µM): 83.1%
- viability, T/C (second compound 9.49 µM, first compound 10 µM): 57%
- viability, T/C [34]: 61.9%
- viability, T/C [35]: 73.8%
- viability, T/C (second compound 30 µM, first compound 0.316 µM): 64.6%
- viability, T/C (second compound 30 µM, first compound 1 µM): 70.1%
- viability, T/C (second compound 30 µM, first compound 3.16 µM): 67.5%
- viability, T/C (second compound 30 µM, first compound 10 µM): 75.3%
